# Measurements as given in PubChem BioAssay AID2060335 (Molecular Pharmacology Branch, DTP, NCI, 2025).
# Where “and” joins values, the source holds several entries; their conditions need not be identical. Identical values can stand only once.
# Test system: DU-145 multicell spheroids with HUVEC/MSC, viability
# Test: Anticancer human tumor DU-145 cell line growth inhibition [IpAb];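 note: spheroids exposed to agents for seven days before measurement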;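 for viability, T/C: percent of DMSO vehicle control viability so 100% = untreated level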
# Conditions: for viability, T/C: stronger effect = lower value
# Source text: Combinatorial screen of targeted agents with ipatasertib and abemaciclib in multi-cell type tumor spheroids
# A high-throughput screen of multi-cell type tumor spheroids was designed to identify active combinations of targeted small molecules and ipatasertib or abemaciclib. Complex spheroids include a stromal component modeled by human endothelial cells (HUVEC) and fibroblasts modeled by human mesenchymal stem cells (MSCs). The concentration ranges selected for each drug and investigational agent were based upon clinically achievable concentrations if the clinical Cmax of the agent was known.
# Compounds. The drugs and investigational agents: ipatasertib (NSC767898), abemaciclib(NSC768073), selumetinib (NSC741078), trametinib (758246), adavosertib (NSC754352), everolimus (NSC733504), sapanisertib (NSC764658), vemurafenib (NSC761431), venetoclax (NSC766270), copanlisib (NSC809693), apelisib (NSC765974), palbociblib (NSC758247), vemurafenib (NSC761431), dabrafenib (NSC764134), ravoxertinib (NSC781343), BMS-387032 (NSC767048), sotorasib (NSC818433), talazoparib (NSC767125) and afursertib (NSC778305), were obtained from the National Cancer Institute (NCI) Developmental Therapeutics Program Chemical Repository. The FDA-approved anticancer drug set is available from the NCI Developmental Therapeutics Program. […] The stock solutions were prepared in dimethyl sulfoxide (DMSO, Sigma-Aldrich, St. Louis, MO, cat. D2650) at 800-fold the tested concentration and stored at -70 degrees C prior to their use. All drugs and investigational agents were tested over a range starting from a high concentration at or near the clinical Cmax and decreasing in half-log increments. If the clinical Cmax for an agent had not been determined, the highest concentration tested was 10 microM.
# NCI60 Cell Culture. NCI60 cell lines were obtained from the NCI Developmental Therapeutics Program Tumor Repository. For each lot of cells, the Repository performed Applied Biosystems AmpFLSTR Identifiler testing with PCR amplification to confirm consistency with the published Identifier STR profile for each cell line. Cells were kept in continuous culture for no more than 20 passages. The optimal seeding densities for each of the cell lines at each time point assessed were determined prior to performing the concentration response studies. Briefly, the NCI60 human tumor lines were grown as monolayers in RPMI 1640 medium supplemented with 10% FBS and 2 mmol/L L-glutamine.
# An additional 9 lines were from the NCI60 cell line panel including MDA-MB-231 breast carcinoma, MDA-MB-468 breast carcinoma, MCF7 breast carcinoma, Hs578T breast carcinoma, MALME-3M melanoma, SK-MEL-2 melanoma, SK-OV-3 ovarian carcinoma, DU-145 prostate carcinoma, PC-3 prostate carcinoma, all cell lines along with major genetic alterations are listed on Table 2. Pooled donor human umbilical vein endothelial cells (HUVEC, Lonza, cat. CC-2519) and human mesenchymal stem cells (hMSC, Lonza, cat. PT-2501) were purchased from Lonza (Walkersville, MD).
# PDMR cell lines were grown in complete medium (DC medium): Dulbecco's modified Eagle's medium (DMEM)/F12 supplemented with 5% fetal bovine serum (FBS), 2 mM L-glutamine, 100 U/mL penicillin and 100 µg/ml streptomycin, 0.4 µg/ml hydrocortisone, 10 ng/ml epidermal growth factor (EGF) recombinant human protein, 24 µg/mL adenine, and 0.1 mg/mL primocin. During culture from frozen stock vials, PDMR cells were cultured in the same medium containing 10 µM Y-27632 (see Table 3). The PDCs were cultured in complete DMEM/F12 media without 10 microM Y-27632 dihydrochloride for at least two passages prior to the screen. The pooled donor HUVEC and hMSC were cultured in endothelial cell growth medium 2 (PromoCell, Heidelberg, Germany, cat. C-22011) and mesenchymal stem cell growth medium 2 (PromoCell, cat. C-28009), respectively. For all experiments, HUVEC and hMSC were used at passages </=5.
# […]
# [1] = curve of first compound, second compound 0.1 µM
# [2] = curve of first compound, second compound 0.316 µM
# [3] = curve of first compound, second compound 1 µM
# [4] = curve of first compound, second compound 3.16 µM
# [5] = curve of first compound, second compound 10 µM
# [6] = second compound 0.1 µM, first compound 0.0316 µM
# [7] = second compound 0.1 µM, first compound 0.1 µM
# [8] = second compound 0.1 µM, first compound 0.316 µM
# [9] = second compound 0.1 µM, first compound 1 µM
# [10] = second compound 0.316 µM, first compound 0.0316 µM
# [11] = second compound 0.316 µM, first compound 0.1 µM
# [12] = second compound 0.316 µM, first compound 0.316 µM
# [13] = second compound 0.316 µM, first compound 1 µM
# [14] = second compound 1 µM, first compound 0.0316 µM
# [15] = second compound 1 µM, first compound 0.1 µM
# [16] = second compound 1 µM, first compound 0.316 µM
# [17] = second compound 1 µM, first compound 1 µM
# [18] = second compound 3.16 µM, first compound 0.0316 µM
# [19] = second compound 3.16 µM, first compound 0.1 µM
# [20] = second compound 3.16 µM, first compound 0.316 µM
# [21] = second compound 3.16 µM, first compound 1 µM
# [22] = second compound 10 µM, first compound 0.0316 µM
# [23] = second compound 10 µM, first compound 0.1 µM
# [24] = second compound 10 µM, first compound 0.316 µM
# [25] = second compound 10 µM, first compound 1 µM
smiles,measurement,setting,value
COc1c(OCCCN2CCOCC2)ccc2c3n(c(=NC(=O)c4cnc(N)nc4)nc12)CCN3 + CC(C)NCC(C(=O)N1CCN(c2ncnc3c2C(C)CC3O)CC1)c1ccc(Cl)cc1,IC50,[1],6.79 nM
same,IC50,[2],< 3.16 nM
same,IC50,[3],< 3.16 nM
same,IC50,[4],< 3.16 nM
same,IC50,[5],< 3.16 nM
same,"viability, T/C","second compound 0.1 µM, first compound 0.00316 µM",65.3%
same,"viability, T/C","second compound 0.1 µM, first compound 0.01 µM",41.2%
same,"viability, T/C",[6],27.6%
same,"viability, T/C",[7],12.7%
same,"viability, T/C",[8],9.75%
same,"viability, T/C",[9],10.5%
same,"viability, T/C","second compound 0.316 µM, first compound 0.00316 µM",41.5%
same,"viability, T/C","second compound 0.316 µM, first compound 0.01 µM",28.2%
same,"viability, T/C",[10],18.8%
same,"viability, T/C",[11],11.6%
same,"viability, T/C",[12],9.1%
same,"viability, T/C",[13],11.2%
same,"viability, T/C","second compound 1 µM, first compound 0.00316 µM",25.4%
same,"viability, T/C","second compound 1 µM, first compound 0.01 µM",22%
same,"viability, T/C",[14],14.8%
same,"viability, T/C",[15],10%
same,"viability, T/C",[16],8.83%
same,"viability, T/C",[17],10.2%
same,"viability, T/C","second compound 3.16 µM, first compound 0.00316 µM",18.7%
same,"viability, T/C","second compound 3.16 µM, first compound 0.01 µM",14.6%
same,"viability, T/C",[18],12.1%
same,"viability, T/C",[19],9.46%
same,"viability, T/C",[20],8.26%
same,"viability, T/C",[21],9.07%
same,"viability, T/C","second compound 10 µM, first compound 0.00316 µM",14.6%
same,"viability, T/C","second compound 10 µM, first compound 0.01 µM",12.5%
same,"viability, T/C",[22],10.5%
same,"viability, T/C",[23],8.52%
same,"viability, T/C",[24],7.9%
same,"viability, T/C",[25],9.09%
CC(C)(C)c1cnc(CSc2cnc(NC(=O)C3CCNCC3)s2)o1 + CC(C)NCC(C(=O)N1CCN(c2ncnc3c2C(C)CC3O)CC1)c1ccc(Cl)cc1,IC50,[1],107 nM
same,IC50,[2],81.5 nM
same,IC50,[3],< 9.49 nM
same,IC50,[4],< 9.49 nM
same,IC50,[5],< 9.49 nM
same,"viability, T/C","second compound 0.1 µM, first compound 0.00949 µM",89.1%
same,"viability, T/C","second compound 0.1 µM, first compound 0.03 µM",92%
same,"viability, T/C","second compound 0.1 µM, first compound 0.0949 µM",54.7%
same,"viability, T/C","second compound 0.1 µM, first compound 0.3 µM",10%
same,"viability, T/C","second compound 0.1 µM, first compound 0.949 µM",6.37%
same,"viability, T/C","second compound 0.1 µM, first compound 3 µM",5.76%
same,"viability, T/C","second compound 0.316 µM, first compound 0.00949 µM",60.1%
same,"viability, T/C","second compound 0.316 µM, first compound 0.03 µM",60.2%
same,"viability, T/C","second compound 0.316 µM, first compound 0.0949 µM",48.5%
same,"viability, T/C","second compound 0.316 µM, first compound 0.3 µM",8.51%
same,"viability, T/C","second compound 0.316 µM, first compound 0.949 µM",6.34%
same,"viability, T/C","second compound 0.316 µM, first compound 3 µM",5.65%
same,"viability, T/C","second compound 1 µM, first compound 0.00949 µM",33.1%
same,"viability, T/C","second compound 1 µM, first compound 0.03 µM",38.5%
same,"viability, T/C","second compound 1 µM, first compound 0.0949 µM",31.7%
same,"viability, T/C","second compound 1 µM, first compound 0.3 µM",7.62%
same,"viability, T/C","second compound 1 µM, first compound 0.949 µM",5.87%
same,"viability, T/C","second compound 1 µM, first compound 3 µM",5.13%
same,"viability, T/C","second compound 3.16 µM, first compound 0.00949 µM",23.1%
same,"viability, T/C","second compound 3.16 µM, first compound 0.03 µM",25.1%
same,"viability, T/C","second compound 3.16 µM, first compound 0.0949 µM",24%
same,"viability, T/C","second compound 3.16 µM, first compound 0.3 µM",8.35%
same,"viability, T/C","second compound 3.16 µM, first compound 0.949 µM",5.85%
same,"viability, T/C","second compound 3.16 µM, first compound 3 µM",5.4%
same,"viability, T/C","second compound 10 µM, first compound 0.00949 µM",18.1%
same,"viability, T/C","second compound 10 µM, first compound 0.03 µM",21.6%
same,"viability, T/C","second compound 10 µM, first compound 0.0949 µM",15.7%
same,"viability, T/C","second compound 10 µM, first compound 0.3 µM",6.3%
same,"viability, T/C","second compound 10 µM, first compound 0.949 µM",5.1%
same,"viability, T/C","second compound 10 µM, first compound 3 µM",4.5%
C=CC(=O)N1CCN(c2nc(=O)n(-c3c(C)ccnc3C(C)C)c3nc(-c4c(O)cccc4F)c(F)cc23)C(C)C1 (configuration not stated) + CC(C)NCC(C(=O)N1CCN(c2ncnc3c2C(C)CC3O)CC1)c1ccc(Cl)cc1,IC50,[1],8760 nM
same,IC50,[2],4170 nM
same,IC50,[3],< 31.6 nM
same,IC50,[4],< 31.6 nM
same,IC50,[5],< 31.6 nM
same,"viability, T/C",[6],81.3%
same,"viability, T/C",[7],87.7%
same,"viability, T/C",[8],86.1%
same,"viability, T/C",[9],92%
same,"viability, T/C","second compound 0.1 µM, first compound 3.16 µM",82.9%
same,"viability, T/C","second compound 0.1 µM, first compound 10 µM",45.5%
same,"viability, T/C",[10],53.9%
same,"viability, T/C",[11],55%
same,"viability, T/C",[12],59.1%
same,"viability, T/C",[13],59.2%
same,"viability, T/C","second compound 0.316 µM, first compound 3.16 µM",52.9%
same,"viability, T/C","second compound 0.316 µM, first compound 10 µM",37.8%
same,"viability, T/C",[14],34%
same,"viability, T/C",[15],35.5%
same,"viability, T/C",[16],37.6%
same,"viability, T/C",[17],37.4%
same,"viability, T/C","second compound 1 µM, first compound 3.16 µM",34.5%
same,"viability, T/C","second compound 1 µM, first compound 10 µM",28.3%
same,"viability, T/C",[18],22.4%
same,"viability, T/C",[19],21.9%
same,"viability, T/C",[20],27.5%
same,"viability, T/C",[21],24.4%
same,"viability, T/C","second compound 3.16 µM, first compound 3.16 µM",24.5%
same,"viability, T/C","second compound 3.16 µM, first compound 10 µM",20.7%
same,"viability, T/C",[22],19.5%
same,"viability, T/C",[23],19.3%
same,"viability, T/C",[24],18.5%
same,"viability, T/C",[25],21.6%
same,"viability, T/C","second compound 10 µM, first compound 3.16 µM",19.9%
same,"viability, T/C","second compound 10 µM, first compound 10 µM",17.1%
Cn1ncc(Cl)c1-c1cc(C(=O)NC(CN)Cc2cccc(F)c2)sc1Cl (configuration not stated),"viability, T/C",compound 0.0316 µM,92.5% and 86.1%
same,"viability, T/C",compound 0.1 µM,74.3% and 61.8%
same,"viability, T/C",compound 0.316 µM,41.4% and 33.2%
same,"viability, T/C",compound 1 µM,27.6% and 23.1%
same,"viability, T/C",compound 3.16 µM,20.3% and 15.2%
same,"viability, T/C",compound 10 µM,1.17% and 1.6%
same,IC50,curve of compound,271 nM and 163 nM
